In ChEMBL document CHEMBL4622887, “Antibacterial Pentacyclic Polyketides from a Soil-Derived Streptomyces” (2020):
Converted amounts (≈) assume the structure as drawn.

What was measured:
Type in all cases: functional
Staphylococcus aureus [1] = test: Antibacterial activity against methicillin-resistant Staphylococcus aureus shhs-A1 incubated for 16 hrs by broth microdilution method; conditions: shhs-A1, 16 h
Escherichia coli = test: Antibacterial activity against Escherichia coli ATCC 8099 incubated for 16 hrs by broth microdilution method; conditions: ATCC 8099, 16 h
Staphylococcus aureus [2] = test: Antibacterial activity against Staphylococcus aureus ATCC 6538 incubated for 16 hrs by broth microdilution method; conditions: ATCC 6538, 16 h
Bacillus spizizenii = test: Antibacterial activity against Bacillus subtilis ATCC 6633 incubated for 16 hrs by broth microdilution method; conditions: ATCC 6633, 16 h

| Compound | MIC (Staphylococcus aureus [1]) [µg/mL] | MIC (Escherichia coli) [µg/mL] | MIC (Staphylococcus aureus [2]) [µg/mL] | MIC (Bacillus spizizenii) [µg/mL] |
| --- | --- | --- | --- | --- |
| COc1cc(C)c(-c2cc(OC)c(Cl)c3c2C(=O)[C@@]2(O)C(=O)c4c(O)cc(O)cc4C(C)(C)[C@H]2C3)c(O)c1 | 6.25 (≈ 11.6 µM) | 3.13 (≈ 5.81 µM) | 6.25 (≈ 11.6 µM) | 6.25 (≈ 11.6 µM) |
| COc1cc(C)c(-c2cc(O)c(Cl)c3cc4c(c(O)c23)C(=O)c2c(O)cc(OC)cc2C4(C)C)c(OC)c1 | 6.25 (≈ 11.7 µM) | 6.25 (≈ 11.7 µM) | 6.25 (≈ 11.7 µM) | 6.25 (≈ 11.7 µM) |
| COc1cc(C)c(-c2cc(OC)cc3cc4c(c(O)c23)C(=O)c2c(O)cc(O)cc2C4(C)C)c(OC)c1 | 1.56 (≈ 3.12 µM) | 1.56 (≈ 3.12 µM) | 3.13 (≈ 6.25 µM) | 3.13 (≈ 6.25 µM) |
| COc1cc(-c2c(O)cc(OC)c(Cl)c2C)c2c(O)c3c(cc2c1)C(C)(C)c1cc(O)cc(O)c1C3=O | 3.13 (≈ 6.01 µM) | 3.13 (≈ 6.01 µM) | 6.25 (≈ 12 µM) | 6.25 (≈ 12 µM) |
| COc1cc(C)c(-c2cc(O)c(Cl)c3c2C(=O)[C@@]2(O)C(=O)c4c(O)cc(O)cc4C(C)(C)[C@H]2C3)c(O)c1 |  | 25 (≈ 47.6 µM) | 12.5 (≈ 23.8 µM) | 50 (≈ 95.2 µM) |
| COc1cc(C)c(-c2cc(OC)c(Cl)c3cc4c(c(O)c23)C(=O)c2c(O)cc(O)cc2C4(C)C)c(OC)c1 | 3.13 (≈ 5.85 µM) | 3.13 (≈ 5.85 µM) | 3.13 (≈ 5.85 µM) | 12.5 (≈ 23.4 µM) |
| COc1cc(OC)c(-c2cc(OC)c(Cl)c3c2C(=O)[C@@]2(O)C(=O)c4c(cc(O)c(Cl)c4O)C(C)(C)[C@H]2C3)c(C)c1Cl | 3.13 (≈ 5.03 µM) | 12.5 (≈ 20.1 µM) | 6.25 (≈ 10 µM) | 3.13 (≈ 5.03 µM) |
| COc1cc(O)c(-c2cc(OC)c(Cl)c3c2C(=O)[C@@]2(O)C(=O)c4c(O)cc(O)cc4C(C)(C)[C@H]2C3)c(C)c1Cl | 1.56 (≈ 2.72 µM) | 1.56 (≈ 2.72 µM) | 0.39 (≈ 0.68 µM) | 1.56 (≈ 2.72 µM) |
| COc1cc(C)c(-c2cc(OC)cc3cc4c(c(O)c23)C(=O)c2c(O)cc(O)cc2C4(C)C)c(O)c1 | 3.13 (≈ 6.43 µM) | 3.13 (≈ 6.43 µM) | 3.13 (≈ 6.43 µM) | 6.25 (≈ 12.8 µM) |
| COc1cc(OC)c(-c2cc(OC)c(Cl)c3c2C(=O)[C@@]2(O)C(=O)c4c(O)cc(O)cc4C(C)(C)[C@H]2C3)c(C)c1Cl | 25 (≈ 42.6 µM) | 25 (≈ 42.6 µM) | 6.25 (≈ 10.6 µM) | 25 (≈ 42.6 µM) |
| COc1cc(O)c(-c2cc(O)cc3cc4c(c(O)c23)C(=O)c2c(O)cc(O)cc2C4(C)C)c(C)c1Cl | 1.56 (≈ 3.08 µM) | 3.13 (≈ 6.17 µM) | 3.13 (≈ 6.17 µM) | 3.13 (≈ 6.17 µM) |
| COc1cc(C)c(-c2cc(OC)c(Cl)c3c2C(=O)[C@@]2(O)C(=O)c4c(O)c(Cl)c(O)c(Cl)c4C(C)(C)[C@H]2C3)c(OC)c1 | 0.2 (≈ 0.322 µM) | 0.78 (≈ 1.25 µM) | 0.39 (≈ 0.627 µM) | 0.39 (≈ 0.627 µM) |
| COc1cc(C)c(-c2cc(OC)c(Cl)c3c2C(=O)[C@@]2(O)C(=O)c4c(O)cc(O)c(Cl)c4C(C)(C)[C@H]2C3)c(OC)c1 | 1.56 (≈ 2.66 µM) | 1.56 (≈ 2.66 µM) | 0.78 (≈ 1.33 µM) | 3.13 (≈ 5.33 µM) |
| COc1cc(O)cc(C)c1-c1cc(O)c(Cl)c2cc3c(c(O)c12)C(=O)c1c(O)cc(O)cc1C3(C)C | 3.13 (≈ 6.17 µM) | 6.25 (≈ 12.3 µM) | 1.56 (≈ 3.08 µM) | 6.25 (≈ 12.3 µM) |
| COc1cc(OC)c(-c2cc(OC)c(Cl)c3c2C(=O)[C@@]2(O)C(=O)c4c(O)cc(O)c(Cl)c4C(C)(C)[C@H]2C3)c(C)c1Cl | 3.13 (≈ 5.03 µM) | 1.56 (≈ 2.51 µM) | 3.13 (≈ 5.03 µM) | 1.56 (≈ 2.51 µM) |
| COc1cc(C)c(-c2cc(OC)c(Cl)c3c2C(=O)[C@@]2(O)C(=O)c4c(O)cc(O)cc4C(C)(C)[C@H]2C3)c(OC)c1 | 1.56 (≈ 2.82 µM) | 3.13 (≈ 5.66 µM) | 3.13 (≈ 5.66 µM) | 3.13 (≈ 5.66 µM) |
| COc1cc2c(c(-c3c(O)cc(OC)c(Cl)c3C)c1)C(=O)[C@@]1(O)C(=O)c3c(O)cc(O)cc3C(C)(C)[C@H]1C2 | 3.13 (≈ 5.81 µM) | 3.13 (≈ 5.81 µM) | 3.13 (≈ 5.81 µM) | 6.25 (≈ 11.6 µM) |
| NC[C@H]1O[C@H](O[C@H]2[C@H](O)[C@@H](O[C@H]3O[C@H](CO)[C@@H](O)[C@H](N)[C@H]3O)[C@H](N)C[C@@H]2N)[C@H](O)[C@@H](O)[C@@H]1O [KANAMYCIN] |  | 50 (≈ 103 µM) | 1.56 (≈ 3.22 µM) | 0.78 (≈ 1.61 µM) |
| CN[C@H](CC(C)C)C(=O)N[C@H]1C(=O)N[C@@H](CC(N)=O)C(=O)N[C@H]2C(=O)N[C@H]3C(=O)N[C@H](C(=O)N[C@H](C(=O)O)c4cc(O)cc(O)c4-c4cc3ccc4O)[C@H](O)c3ccc(c(Cl)c3)Oc3cc2cc(c3O[C@@H]2O[C@H](CO)[C@@H](O)[C@H](O)[C@H]2O[C@H]2C[C@](C)(N)[C@H](O)[C@H](C)O2)Oc2ccc(cc2Cl)[C@H]1O [VANCOMYCIN] | 1.56 (≈ 1.08 µM) |  |  |  |
